In patent US6214340A, “Physiologically active substance sulphostin, process for producing the same, and use thereof” (Zaidan Hojin Biseibutsu Kagaku Kenkyu Kai, priority 1997, dated 2001) one finds Solubility data, which are given here for 1 compound.

This data set is described as follows: Solubility (physicochemical properties). The source says: The physicochemical properties of the thus obtained physiologically active substance sulphostin are shown below.
4) Solubility: soluble in water and insoluble in lower alcohol, acetone, ethyl acetate, hexane and petroleum ether.

`NC1CCCN(P(N)(=O)NS(=O)(=O)O)C1=O` (centres unmarked) [sulphostin]: the Solubility result was “insoluble” (in lower alcohol, acetone, ethyl acetate, hexane and petroleum ether); “soluble” (in water).
